Measured values as given in ChEMBL document CHEMBL5104189, “Piptide Chemotypes for Perturbation of the Interaction of Urokinase with Its Receptor” (J Med Chem, 2022).
The source made the active and inactive calls. The calls are words filed in the database; no cut-off is given here.

Assays:
[1] = target: T1, Urokinase-type plasminogen activator/surface receptor (Homo sapiens, UniProt P00749+Q03405); assay: Inhibition of uPAR/uPA (unknown origin) interaction by ELISA; type: protein assay
[2] = target: T1, Urokinase-type plasminogen activator/surface receptor; assay: Inhibition of uPAR/uPA (unknown origin) interaction assessed as dissociation constant by fluorescence polarization (FP) assay; type: protein assay
MDA-MB-231 [3] = assay: Antimigratory activity in human MDA-MB-231 cells assessed as scratch closure speed at 5 to 50 uM by scratch wound healing assay; type: functional, cell-based; settings: dose 5-50 µM
MDA-MB-231 [4] = assay: Anti-invasive activity in human MDA-MB-231 cells assessed as relative invasion at 5 to 50 uM by scratch wound healing assay; type: functional, cell-based; settings: dose 5-50 µM
MDA-MB-231 [5] = assay: Antimigratory activity in human MDA-MB-231 cells assessed as relative migration at 5 to 50 uM by scratch wound healing assay; type: functional, cell-based; settings: dose 5-50 µM

Cc1ccc(N2C(=O)C(O)=C(C(=O)c3ccc(Cl)cc3)C2c2cccc(F)c2)cc1Br (centres undefined)
IC50 [1]: 18.4 µM | Ki [2]: 0.7 µM

NCCCC[C@H](C(=O)N1CCN([C@H](Cc2ccccc2)C(N)=O)CC1)N1CCN(C(=O)[C@H](N)CO)CC1
IC50 [1]: 3.06 µM | Activity (MDA-MB-231 [3]): Active | Ki [2]: 2.75 µM | Activity (MDA-MB-231 [4]): Active

CC[C@H](C)[C@@H](C(N)=O)n1cc([C@@H](CO)N2C(=O)N[C@@H](Cc3ccccc3)C2=O)nn1
IC50 [1]: 8.35 µM | Ki [2]: 7.5 µM

NCCCC[C@H](C(=O)N1CCN([C@@H](CO)C(N)=O)CC1)n1cc([C@@H](Cc2ccccc2)N2C(=O)N[C@@H](CO)C2=O)nn1
IC50 [1]: 2.45 µM | Ki [2]: 2.2 µM | Activity (MDA-MB-231 [5]): Active

Cc1cccc2c(C(=O)N3CCN(c4c(C)n(C)c(=O)n(C)c4=O)CC3)cc(-c3ccccc3)nc12
IC50 [1]: 15.5 µM | Ki [2]: 2.5 µM

CC[C@H](C)[C@@H](C(N)=O)n1cc([C@@H](CO)NC(=O)N2CCN([C@@H](CO)C(=O)N3CCN([C@@H](CCCCN)C(=O)O)CC3)CC2)nn1
IC50 [1]: 2.85 µM | Ki [2]: 2.56 µM

NC(=O)C[C@H](C(=O)N1CCN([C@H](CO)C(N)=O)CC1)N1CCN(C(=O)[C@H](N)Cc2ccccc2)CC1
IC50 [1]: 14.7 µM | Ki [2]: 13.2 µM

NCCCC[C@H](C(=O)N1CCN([C@@H](Cc2ccccc2)C(N)=O)CC1)N1CCN(C(=O)[C@H](N)CO)CC1
IC50 [1]: 3.06 µM | Ki [2]: 6.2 µM
